Measurements reported in ChEMBL document CHEMBL1133309, “Computational binding studies of human pp60c-src SH2 domain with a series of nonpeptide, phosphophenyl-containing ligands” (Bioorg Med Chem Lett, 2000).

molecular target: Proto-oncogene tyrosine-protein kinase Src (Homo sapiens, UniProt P12931); assay: Binding affinity for Human pp60c-src SH2 domain
Sequence (P12931 2-536 limits assumed): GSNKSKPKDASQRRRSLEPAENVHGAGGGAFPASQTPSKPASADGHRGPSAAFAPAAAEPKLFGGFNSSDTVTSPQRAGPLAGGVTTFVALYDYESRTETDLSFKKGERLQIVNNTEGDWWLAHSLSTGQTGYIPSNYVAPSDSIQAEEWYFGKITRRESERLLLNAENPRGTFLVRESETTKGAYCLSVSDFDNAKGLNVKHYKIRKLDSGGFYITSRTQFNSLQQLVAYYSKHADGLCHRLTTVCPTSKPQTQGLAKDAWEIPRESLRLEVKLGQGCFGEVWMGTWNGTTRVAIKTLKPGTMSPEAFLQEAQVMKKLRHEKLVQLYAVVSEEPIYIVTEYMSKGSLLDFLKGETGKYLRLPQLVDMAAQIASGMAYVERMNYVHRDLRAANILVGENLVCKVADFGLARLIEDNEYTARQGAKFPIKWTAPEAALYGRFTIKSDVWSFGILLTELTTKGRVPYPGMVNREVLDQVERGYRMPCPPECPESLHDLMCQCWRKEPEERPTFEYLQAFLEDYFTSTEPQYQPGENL

IC50 [µM]	Structure (SMILES)
69	CC(=O)c1cc(CNC(=O)c2ccc(OP(=O)(O)O)cc2)ccc1OCC1CCCCC1
> 100	O=C(NCc1ccc(OCC2CCCCC2)cc1)c1ccc(OP(=O)(O)O)cc1
30	CNC(=O)c1cc(CNC(=O)c2ccc(OP(=O)(O)O)cc2)ccc1OCC1CCCCC1
